The numbers were not newly measured in US20070162983A1, “Diagnostic and therapeutic use of the human sgpl1 gene and protein for neurodegenerative diseases” (Evotec NeuroSciences GmbH, priority 2003, published 2007), which cites them from elsewhere.

One data set concerns the target SGPL1. The conditions noted are these: known specific inhibitors of SGPL1 activity; for IC50: read-out: IC50, inhibition of SGPL1 activity.
The conditions of data set [1]: dogs, estimated (Tosaka et al., Stroke 2001).

As usually defined, the Ki is a dissociation constant, usually derived from enzyme kinetics or from competition with a known ligand. As for `CCCCCCCCCCCCCCC[C@H](O)[C@@H](N)COP(=O)(O)O` (single isomer, unassigned) [2D,3L-isomer of sphinganine phosphate], at SGPL1 (read-out: Ki, inhibition of SGPL1 activity), the Ki is 9.7 µM.
As for `CCCCCCCCCCCCC/C=C/[C@@H](O)[C@@H](N)COP(=O)(O)O` [S1P, sphingosine-1-phosphate], the “half-life in cerebrospinal fluid (CSF)” value in data set [1] is recorded as “approximately 10 minutes”.
The IC50 is the concentration that gives 50% inhibition. `CCCC[C@H](C)[C@H](O)[C@H](O)C[C@H](C)C[C@@H](O)CCCC[C@@H](O)C[C@H](O)[C@H](C)N`: in the data set with SGPL1, the IC50 was 20 µM.
As to 2-vinyl analog of sphinganine phosphate, in the data set on SGPL1, the IC50 is 2.4 µM.
